Assay results published in paper PMC7179445, “Anticancer Activities of Newly Synthesized Chiral Macrocyclic Heptapeptide Candidates” (Molecules, 2020).
Like-named read-outs stand apart in the source and are kept apart here.

Key:
[1] = system: HepG2 cells; format: cell-based, human
Description: (§1) The cytotoxic effects of the prepared compounds on MCF-7 and HepG2 cells were investigated with the help of standard MTT assay. […] Plates were then further incubated for 72 h. Afterwards, 20 μL of MTT (5 mg/mL in PBS) were pipetted to the wells and incubated for another 4 h. The medium was then aspirated and 100 μL DMSO were added/well. Absorbance was read using a microplate reader at 570 nm. IC50 values, used to compare compound toxicity with control cells, were obtained from linear regression of the dose–response curve using Origin® 6.1 software (OriginLab Corporation, Northampton, MA, USA). […] Data were represented as mean ± SD.

[2] = system: MCF-7 cells; format: cell-based, human; details: for IC50: 72 h
Description: as §1

CC[C@H](C)[C@H](NC(=O)[C@@H](NC(=O)c1cccc(C(=O)N[C@H](C(=O)N[C@H](C(=O)O)[C@@H](C)CC)[C@@H](C)CC)n1)[C@@H](C)CC)C(=O)O [1a]
IC50 ([1]; 72 h): 6.62 ± 0.353 µM
IC50 [2]: 15.3 ± 0.672 µM

CC[C@H](C)[C@H](NC(=O)c1cccc(C(=O)N[C@H](C(=O)N[C@@H](Cc2ccccc2)C(=O)O)[C@@H](C)CC)n1)C(=O)N[C@@H](Cc1ccccc1)C(=O)O [1b]
IC50 ([1]; 72 h): 8.72 ± 0.474 µM
IC50 [2]: 10.9 ± 0.534 µM

CC[C@H](C)[C@H](NC(=O)[C@H](Cc1ccccc1)NC(=O)c1cccc(C(=O)N[C@@H](Cc2ccccc2)C(=O)N[C@H](C(=O)O)[C@@H](C)CC)n1)C(=O)O [1c]
IC50 ([1]; 72 h): 17 ± 0.965 µM
IC50 [2]: 34.9 ± 1.27 µM

CC[C@H](C)[C@H](NC(=O)c1cccc(C(=O)N[C@H](C(=O)N[C@H](C(=O)N[C@@H](Cc2ccccc2)C(=O)OC)[C@@H](C)CC)[C@@H](C)CC)n1)C(=O)N[C@H](C(=O)N[C@@H](Cc1ccccc1)C(=O)OC)[C@@H](C)CC [2a, N^α-Dipicolinoyl-bis[L-ILe-L-ILe-L-Phe-methyl ester]]
IC50 ([1]; 72 h): 17.5 ± 0.876 µM
IC50 [2]: > 100 µM

CC[C@H](C)[C@H](NC(=O)c1cccc(C(=O)N[C@H](C(=O)N[C@@H](Cc2ccccc2)C(=O)N[C@H](C(=O)OC)[C@@H](C)CC)[C@@H](C)CC)n1)C(=O)N[C@@H](Cc1ccccc1)C(=O)N[C@H](C(=O)OC)[C@@H](C)CC [2b, N^α-Dipicolinoyl-bis[L-ILe-L-L-Phe-ILe-methyl ester]]
IC50 ([1]; 72 h): 18.7 ± 0.988 µM
IC50 [2]: 20.7 ± 0.974 µM

CC[C@H](C)[C@H](NC(=O)[C@H](Cc1ccccc1)NC(=O)c1cccc(C(=O)N[C@@H](Cc2ccccc2)C(=O)N[C@H](C(=O)N[C@H](C(=O)OC)[C@@H](C)CC)[C@@H](C)CC)n1)C(=O)N[C@H](C(=O)OC)[C@@H](C)CC [2c, N^α-Dipicolinoyl-bis[L-Phe-L-ILe-L-ILe-methyl ester]]
IC50 ([1]; 72 h): 19.3 ± 1.06 µM
IC50 [2]: 24.9 ± 1.08 µM

CC[C@H](C)[C@H](NC(=O)c1cccc(C(=O)N[C@H](C(=O)N[C@H](C(=O)N[C@@H](Cc2ccccc2)C(=O)O)[C@@H](C)CC)[C@@H](C)CC)n1)C(=O)N[C@H](C(=O)N[C@@H](Cc1ccccc1)C(=O)O)[C@@H](C)CC [3a, N^α-Dipicolinoyl-bis[L-ILe-L-ILe-L-Phe-carboxylic acid]]
IC50 ([1]; 72 h): 8.06 ± 0.863 µM
IC50 [2]: 10.3 ± 0.546 µM

CC[C@H](C)[C@H](NC(=O)[C@H](Cc1ccccc1)NC(=O)[C@@H](NC(=O)c1cccc(C(=O)N[C@H](C(=O)N[C@@H](Cc2ccccc2)C(=O)N[C@H](C(=O)O)[C@@H](C)CC)[C@@H](C)CC)n1)[C@@H](C)CC)C(=O)O [3b, N^α-Dipicolinoyl-bis[L-ILe-L-Phe-L-ILe-carboxylic acid]]
IC50 ([1]; 72 h): 9.66 ± 0.792 µM
IC50 [2]: 9.91 ± 0.491 µM

CC[C@H](C)[C@H](NC(=O)[C@@H](NC(=O)[C@H](Cc1ccccc1)NC(=O)c1cccc(C(=O)N[C@@H](Cc2ccccc2)C(=O)N[C@H](C(=O)N[C@H](C(=O)O)[C@@H](C)CC)[C@@H](C)CC)n1)[C@@H](C)CC)C(=O)O [3c, N^α-Dipicolinoyl-bis[L-Phe-L-ILe-L-ILe-carboxylic acid]]
IC50 ([1]; 72 h): 17 ± 1.16 µM
IC50 [2]: 22.9 ± 0.992 µM

CC[C@H](C)[C@@H]1NC(=O)c2cccc(n2)C(=O)N[C@@H]([C@@H](C)CC)C(=O)N[C@@H]([C@@H](C)CC)C(=O)N[C@@H](Cc2ccccc2)C(=O)N[C@H](C(=O)OC)CCCCNC(=O)[C@H](Cc2ccccc2)NC(=O)[C@H]([C@@H](C)CC)NC1=O [4a, Cyclo-(N^α-dipicolinoyl)-bis-[(L-ILe-L-ILe-L-Phe)-L-Lysmethyl ester]]
IC50 ([1]; 72 h): 7.31 ± 0.595 µM
IC50 [2]: 9.3 ± 0.536 µM

CC[C@H](C)[C@@H]1NC(=O)c2cccc(n2)C(=O)N[C@@H]([C@@H](C)CC)C(=O)N[C@@H](Cc2ccccc2)C(=O)N[C@@H]([C@@H](C)CC)C(=O)N[C@H](C(=O)OC)CCCCNC(=O)[C@H]([C@@H](C)CC)NC(=O)[C@H](Cc2ccccc2)NC1=O [4b, Cyclo-(N^α-dipicolinoyl)-bis-[(L-ILe-L-Phe-L-Ile)-L-Lysmethyl ester]]
IC50 ([1]; 72 h): 7.17 ± 0.892 µM
IC50 [2]: 9.19 ± 0.545 µM

CC[C@H](C)[C@@H]1NC(=O)[C@H](Cc2ccccc2)NC(=O)c2cccc(n2)C(=O)N[C@@H](Cc2ccccc2)C(=O)N[C@@H]([C@@H](C)CC)C(=O)N[C@@H]([C@@H](C)CC)C(=O)N[C@H](C(=O)OC)CCCCNC(=O)[C@H]([C@@H](C)CC)NC1=O [4c, Cyclo-(N^α-dipicolinoyl)-bis-[(L-Phe-L-ILe-L-Ile)-L-Lysmethyl ester]]
IC50 ([1]; 72 h): 9.63 ± 0.932 µM
IC50 [2]: 19.6 ± 1.03 µM

CC[C@H](C)[C@@H]1NC(=O)c2cccc(n2)C(=O)N[C@@H]([C@@H](C)CC)C(=O)N[C@@H]([C@@H](C)CC)C(=O)N[C@@H](Cc2ccccc2)C(=O)N[C@H](C(=O)O)CCCCNC(=O)[C@H](Cc2ccccc2)NC(=O)[C@H]([C@@H](C)CC)NC1=O [5a, Cyclo-(N^α-dipicolinoyl)-bis-[(L-ILe-L-Ile-L-Phe)-L-Lyscarboxylic acid]]
IC50 ([1]; 72 h): 7.12 ± 0.79 µM

CC[C@H](C)[C@@H]1NC(=O)c2cccc(n2)C(=O)N[C@@H]([C@@H](C)CC)C(=O)N[C@@H](Cc2ccccc2)C(=O)N[C@@H]([C@@H](C)CC)C(=O)N[C@H](C(=O)O)CCCCNC(=O)[C@H]([C@@H](C)CC)NC(=O)[C@H](Cc2ccccc2)NC1=O [5b, Cyclo-(N^α-dipicolinoyl)-bis-[(L-ILe-L-Phe-L-Ile)-L-Lyscarboxylic acid]]
IC50 ([1]; 72 h): 7.09 ± 0.784 µM

CC[C@H](C)[C@@H]1NC(=O)[C@H](Cc2ccccc2)NC(=O)c2cccc(n2)C(=O)N[C@@H](Cc2ccccc2)C(=O)N[C@@H]([C@@H](C)CC)C(=O)N[C@@H]([C@@H](C)CC)C(=O)N[C@H](C(=O)O)CCCCNC(=O)[C@H]([C@@H](C)CC)NC1=O [5c, Cyclo-(N^α-dipicolinoyl)-bis-[(L-Phe-L-ILe-L-Ile)-L-Lyscarboxylic acid]]
cytotoxic activity against HepG2 cells (in words) [1]: only active against HepG2 cells
IC50 ([1]; 72 h): 9.57 ± 1.14 µM
cytotoxic activity against MCF-7 cells (in words) [2]: did not show any activity

N.N.[Cl][Pt][Cl] [Cisplatin, reference compound]
IC50 ([1]; read-out: IC50 (compound concentration required to inhibit the cell viability by 50%), HepG-2, hepatocellular cancer cell line HepG2, MTT assay, RPMI 1640, 72 h incubation, absorbance 570 nm, mean ± SD, triplicates): 10.9 ± 0.962 µM
